The source made the active and inactive calls. The calls are words filed in the database; no cut-off is given here.
Assays:
Oryctolagus cuniculus [1] = assay: Toxicity in New Zealand white rabbit myocardial ischemia/reperfusion injury model assessed as mean blood pressure at 1.79 umol/kg, administered as single bolus dose at 180 mins of reperfusion (reference value: 60 +/- 4 mmHg); type: organism-based; conditions: in vivo, iv, 3 h
Oryctolagus cuniculus [2] = assay: Toxicity in New Zealand white rabbit myocardial ischemia/reperfusion injury model assessed as heart rate at 1.79 umol/kg, administered as single bolus dose at 180 mins of reperfusion (reference value: 254 +/- 11 bpm); type: organism-based; conditions: in vivo, 3 h
Oryctolagus cuniculus [3] = assay: (§1) Cardioprotective activity in New Zealand white rabbit myocardial ischemia/reperfusion injury model assessed as reduction in infarct size at 1.79 umol/kg, administered as single bolus dose at 20th min of sustained ischemia by TTC staining (reference value: 47.9 +/- 0.7 %); type: functional, Myocardium; set-up: scale not given: the % may be the effect or the level left
Oryctolagus cuniculus [4] = assay: Toxicity in New Zealand white rabbit assessed as baseline mean blood pressure at 1.79 umol/kg, administered as single bolus dose (reference value: 74 +/- 5 mmHg); type: organism-based; conditions: in vivo
Oryctolagus cuniculus [5] = assay: Toxicity in New Zealand white rabbit assessed as heart weight at 1.79 umol/kg, administered as single bolus dose (reference value: 7.2 +/- 0.3 g); type: organism-based; conditions: in vivo
Oryctolagus cuniculus [6] = assay: Toxicity in New Zealand white rabbit myocardial ischemia/reperfusion injury model assessed as mean blood pressure at 1.79 umol/kg, administered as single bolus dose at 20 mins of sustained ischemia (reference value: 64 +/- 5 mmHg); type: organism-based; conditions: in vivo
RLF-6 [7] = assay: Induction of H2S release in RLF-6 cells assessed as cGMP accumulation after 5 mins by enzyme immuno assay; type: functional, cell-based; conditions: Rattus norvegicus
Oryctolagus cuniculus [8] = assay: Toxicity in New Zealand white rabbit myocardial ischemia/reperfusion injury model assessed as heart rate at 1.79 umol/kg, administered as single bolus dose at 20 mins of sustained ischemia (reference value: 276 +/- 9 bpm); type: organism-based; conditions: in vivo
Oryctolagus cuniculus [9] = assay: Toxicity in New Zealand white rabbit assessed as baseline heart rate at 1.79 umol/kg, administered as single bolus dose (reference value: 269 +/- 10 bpm); type: organism-based; conditions: in vivo
Oryctolagus cuniculus [10] = assay: Toxicity in New Zealand white rabbit myocardial ischemia/reperfusion injury model assessed as mean blood pressure at 1.79 umol/kg, administered as single bolus dose at 180 mins of reperfusion in presence of SPT (reference value: 60 +/- 4 mmHg); type: organism-based; conditions: in vivo, 3 h
Oryctolagus cuniculus [11] = assay: Toxicity in New Zealand white rabbit assessed as heart weight at 1.79 umol/kg, administered as single bolus dose in presence of NaHS (reference value: 7.2 +/- 0.3 g); type: organism-based; conditions: in vivo
Oryctolagus cuniculus [12] = assay: as §1, with “20 mins before” for “20th min of”, “staining in presence of non selective adenosine receptor inhibitor SPT” for “staining”; type: functional, Myocardium; set-up: scale not given: the % may be the effect or the level left
Oryctolagus cuniculus [13] = assay: Toxicity in New Zealand white rabbit assessed as baseline heart rate at 1.79 umol/kg, administered as single bolus dose in presence of NaHS (reference value: 269 +/- 10 bpm); type: organism-based; conditions: in vivo
Oryctolagus cuniculus [14] = assay: Toxicity in New Zealand white rabbit assessed as heart weight at 1.79 umol/kg, administered as single bolus dose in presence of non selective adenosine receptor inhibitor SPT (reference value: 7.2 +/- 0.3 g); type: organism-based; conditions: in vivo
[15] = Induction of H2S release in potassium phosphate buffer at 100 uM at pH 7.4 by Amperometric method; type: physicochemical; conditions: pH 7.4, 100 µM
Oryctolagus cuniculus [16] = assay: Toxicity in New Zealand white rabbit myocardial ischemia/reperfusion injury model assessed as heart rate at 1.79 umol/kg, administered as single bolus dose at 20 mins of sustained ischemia in presence of non selective adenosine receptor inhibitor SPT (reference value: 276 +/- 9 bpm); type: organism-based; conditions: in vivo
Oryctolagus cuniculus [17] = assay: Toxicity in New Zealand white rabbit myocardial ischemia/reperfusion injury model assessed as heart rate at 1.79 umol/kg, administered as single bolus dose at 20 mins of sustained ischemia in presence of NaHS (reference value: 276 +/- 9 bpm); type: organism-based; conditions: in vivo
Oryctolagus cuniculus [18] = assay: Toxicity in New Zealand white rabbit myocardial ischemia/reperfusion injury model assessed as mean blood pressure at 1.79 umol/kg, administered as single bolus dose at 180 mins of reperfusion in presence of NaHS (reference value: 60 +/- 4 mmHg); type: organism-based; conditions: in vivo, iv, 3 h
Oryctolagus cuniculus [19] = assay: Toxicity in New Zealand white rabbit assessed as baseline mean blood pressure at 1.79 umol/kg, administered as single bolus dose in presence of SPT (reference value: 74 +/- 5 mmHg); type: organism-based; conditions: in vivo
Oryctolagus cuniculus [20] = assay: Cardioprotective activity in New Zealand white rabbit myocardial ischemia/reperfusion injury model assessed as reduction in infarct size at 1.79 umol/kg, administered as single bolus dose at 20th min of sustained ischemia by TTC staining in presence of NAHS (reference value: 47.9 +/- 0.7 %); type: functional, Myocardium; set-up: scale not given: the % may be the effect or the level left
Oryctolagus cuniculus [21] = assay: Toxicity in New Zealand white rabbit myocardial ischemia/reperfusion injury model assessed as mean blood pressure at 1.79 umol/kg, administered as single bolus dose at 20 mins of sustained ischemia in presence of non selective adenosine receptor inhibitor SPT (reference value: 64 +/- 5 mmHg); type: organism-based; conditions: in vivo, iv
Oryctolagus cuniculus [22] = assay: Toxicity in New Zealand white rabbit myocardial ischemia/reperfusion injury model assessed as heart rate at 1.79 umol/kg, administered as single bolus dose at 180 mins of reperfusion in presence of NaHS (reference value: 254 +/- 11 bpm); type: organism-based; conditions: in vivo, iv, 3 h
Oryctolagus cuniculus [23] = assay: Toxicity in New Zealand white rabbit assessed as baseline heart rate at 1.79 umol/kg, administered as single bolus dose in presence of non selective adenosine receptor inhibitor SPT (reference value: 269 +/- 10 bpm); type: organism-based; conditions: in vivo
Oryctolagus cuniculus [24] = assay: Toxicity in New Zealand white rabbit assessed as baseline mean blood pressure at 1.79 umol/kg, administered as single bolus dose in presence of NaHS (reference value: 74 +/- 5 mmHg); type: organism-based; conditions: in vivo
Oryctolagus cuniculus [25] = assay: Toxicity in New Zealand white rabbit myocardial ischemia/reperfusion injury model assessed as heart rate at 1.79 umol/kg, administered as single bolus dose at 180 mins of reperfusion in presence of non selective adenosine receptor inhibitor SPT (reference value: 254 +/- 11 bpm); type: organism-based; conditions: in vivo, 3 h
Oryctolagus cuniculus [26] = assay: Toxicity in New Zealand white rabbit myocardial ischemia/reperfusion injury model assessed as mean blood pressure at 1.79 umol/kg, administered as single bolus dose at 20 mins of sustained ischemia in presence of NaHS (reference value: 64 +/- 5 mmHg); type: organism-based; conditions: in vivo, iv
RLF-6 [27] = assay: Induction of H2S release in RLF-6 cells assessed as cGMP accumulation at 250 uM after 5 mins by enzyme immuno assay; type: functional, cell-based; conditions: Rattus norvegicus
[28] = Induction of H2S release in potassium phosphate buffer at 100 uM at pH 7.4 by Amperometric method in presence of glutathione; type: physicochemical; conditions: pH 7.4, 100 µM
Oryctolagus cuniculus [29] = assay: Increase in PLN phosphorylation at Ser16/Thr17 in tissue from ischemic area of myocardium in New Zealand white rabbit myocardial ischemia/reperfusion injury model at 1.79 umol/kg administered as single bolus dose at 10th min of reperfusion by Western blot analysis relative to control; type: functional, organism-based
[30] = Induction of H2S release in ammonium carbonate buffer at 100 uM at pH 7.4 by mass spectrometry in presence of glutathione; type: physicochemical; conditions: pH 7.4, 100 µM
Oryctolagus cuniculus [31] = assay: Increase in VASP phosphorylation at Ser239 in tissue from ischemic area of myocardium in New Zealand white rabbit myocardial ischemia/reperfusion injury model at 1.79 umol/kg administered as single bolus dose at 10th min of reperfusion by Western blot analysis; type: functional, organism-based
[32] = Induction of H2S release in potassium phosphate buffer at pH 7.4 after 15 mins by methylene-blue assay; type: physicochemical; conditions: pH 7.4, 0.25 h
[33] = Induction of H2S release in ammonium carbonate buffer at 100 uM at pH 7.4 by mass spectrometry; type: physicochemical; conditions: pH 7.4, 100 µM
[34] = Induction of H2S release in potassium phosphate buffer at 20 uM at pH 7.4 by Amperometric method; type: physicochemical; conditions: pH 7.4, 20 µM
Oryctolagus cuniculus [35] = assay: Toxicity in New Zealand white rabbit myocardial ischemia/reperfusion injury model assessed as mean blood pressure at 3.58 umol/kg, administered as single bolus dose at 20 mins of sustained ischemia (reference value: 64 +/- 5 mmHg); type: organism-based; conditions: in vivo
Oryctolagus cuniculus [36] = assay: Toxicity in New Zealand white rabbit myocardial ischemia/reperfusion injury model assessed as heart rate at 3.58 umol/kg, administered as single bolus dose at 20 mins of sustained ischemia (reference value: 276 +/- 9 bpm); type: organism-based; conditions: in vivo
Oryctolagus cuniculus [37] = assay: Toxicity in New Zealand white rabbit myocardial ischemia/reperfusion injury model assessed as mean blood pressure at 3.58 umol/kg, administered as single bolus dose at 180 mins of reperfusion (reference value: 60 +/- 4 mmHg); type: organism-based; conditions: in vivo, 3 h
Oryctolagus cuniculus [38] = assay: Cardioprotective activity in New Zealand white rabbit myocardial ischemia/reperfusion injury model assessed as reduction in infarct size at 3.58 umol/kg, administered as single bolus dose at 20th min of sustained ischemia by TTC staining (reference value: 47.9 +/- 0.7 %); type: functional, Myocardium; set-up: scale not given: the % may be the effect or the level left
Oryctolagus cuniculus [39] = assay: Toxicity in New Zealand white rabbit assessed as baseline mean blood pressure at 3.58 umol/kg, administered as single bolus dose (reference value: 74 +/- 5 mmHg); type: organism-based; conditions: in vivo
Oryctolagus cuniculus [40] = assay: Toxicity in New Zealand white rabbit assessed as baseline heart rate at 3.58 umol/kg, administered as single bolus dose (reference value: 269 +/- 10 bpm); type: organism-based; conditions: in vivo
Oryctolagus cuniculus [41] = assay: Toxicity in New Zealand white rabbit myocardial ischemia/reperfusion injury model assessed as heart rate at 3.58 umol/kg, administered as single bolus dose at 180 mins of reperfusion (reference value: 254 +/- 11 bpm); type: organism-based; conditions: in vivo, 3 h
Oryctolagus cuniculus [42] = assay: Toxicity in New Zealand white rabbit assessed as heart weight at 3.58 umol/kg, administered as single bolus dose (reference value: 7.2 +/- 0.3 g); type: organism-based; conditions: in vivo

SMILES | Activity (Oryctolagus cuniculus [1]) [mmHg] | Activity (Oryctolagus cuniculus [2]) [bpm] | Activity (Oryctolagus cuniculus [3]) [%] | Activity (Oryctolagus cuniculus [4]) [mmHg] | Activity (Oryctolagus cuniculus [5]) [g] | Activity (Oryctolagus cuniculus [6]) [mmHg] | Activity (Oryctolagus cuniculus [8]) [bpm] | Activity (Oryctolagus cuniculus [9]) [bpm] | Activity (Oryctolagus cuniculus [10]) [mmHg] | Activity (Oryctolagus cuniculus [12]) [%] | Activity (Oryctolagus cuniculus [14]) [g] | Activity [15] | Activity (Oryctolagus cuniculus [16]) [bpm] | Activity (Oryctolagus cuniculus [19]) [mmHg] | Activity (Oryctolagus cuniculus [21]) [mmHg] | Activity (Oryctolagus cuniculus [23]) [bpm] | Activity (Oryctolagus cuniculus [25]) [bpm] | Activity (RLF-6 [27]) | Activity (Oryctolagus cuniculus [29]) | Activity (Oryctolagus cuniculus [31]) | further results
Nc1ncnc2c1ncn2CCCCO | 90 | 270 | 32.4 | 95 | 7.3 | 88 | 266 | 275 |  |  |  |  |  |  |  |  |  |  |  |  | Activity (RLF-6 [7]): inactive
NC(=O)c1ccc(OCCCCn2cnc3c(N)ncnc32)cc1 | 71 | 262 | 26.6 | 77 | 7.3 | 75 | 258 | 260 | 72 | 41.8 | 7.1 | Not Active | 259 | 82 | 76 | 278 | 268 |  |  |  | Activity (Oryctolagus cuniculus [11]): 7.4 g; Activity (Oryctolagus cuniculus [13]): 268 bpm; Activity (Oryctolagus cuniculus [17]): 272 bpm; Activity (Oryctolagus cuniculus [18]): 67 mmHg; Activity (Oryctolagus cuniculus [20]): 22.3%; Activity (Oryctolagus cuniculus [22]): 252 bpm; Activity (Oryctolagus cuniculus [24]): 79 mmHg; Activity (Oryctolagus cuniculus [26]): 65 mmHg
NC(=S)c1ccc(O)cc1 |  |  | 24.9 |  |  |  |  |  |  |  |  |  |  |  |  |  |  | Active |  |  | 
NC(=S)c1ccc(OC[C@H]2O[C@@H](n3cnc4c(N)ncnc43)[C@H](O)[C@@H]2O)cc1 | 76 | 256 | 20.1 | 82 | 7.6 | 83 | 256 | 258 | 77 | 18.3 | 7.2 | Active | 260 | 86 | 71 | 262 | 260 | Active | Active | Active | Activity [28]: Not Active; Activity [30]: Not Active; Activity [32]: Dose-dependent effect; Activity [33]: 0.8 µM/min; Activity [34]: Not Active
NC(=S)c1ccc(OCCCCn2cnc3c(N)ncnc32)cc1 | 80 | 255 | 16.6 | 90 | 7.2 | 82 | 276 | 266 | 76 | 16.9 | 7.5 |  | 270 | 81 | 76 | 278 | 276 | Active | Active | Active | Activity (Oryctolagus cuniculus [35]): 40 mmHg; Activity (Oryctolagus cuniculus [36]): 242 bpm; Activity (Oryctolagus cuniculus [37]): 52 mmHg; Activity (Oryctolagus cuniculus [38]): 26.7%; Activity (Oryctolagus cuniculus [39]): 78 mmHg; Activity [32]: Dose-dependent effect; Activity (Oryctolagus cuniculus [40]): 285 bpm; Activity (Oryctolagus cuniculus [41]): 258 bpm; Activity (Oryctolagus cuniculus [42]): 7.4 g
[Na+].[SH-] [SODIUM HYDROSULFIDE] | 68 | 262 |  | 81 | 7.1 | 76 | 268 | 273 |  |  |  |  |  |  |  |  |  |  |  |  | 

— ChEMBL document CHEMBL3784920, “Synthesis and Pharmacological Evaluation of Novel Adenine-Hydrogen Sulfide Slow Release Hybrids Designed as Multitarget Cardioprotective Agents” (J Med Chem, 2016)
